Data: PubChem BioAssay AID248 (DTP/NCI, 2004)
Values joined by “and” are separate entries in the source; they are usually repeats but may differ in a detail not shown here. Identical values can stand only once. Toxic doses and inconclusive results are not listed. Rule as the data show it: active = T/C of 150% or more; inactive = T/C below 125%.

Tested on: L1210 leukemia ip in BDF1 mice, survival T/C
Experiment: NCI In Vivo Anticancer Drug Screen. Data for tumor model L1210 Leukemia (intraperitoneal) in B6D2F1 (BDF1) mice
Conditions: endpoint: mean survival time, higher = longer survival
In short: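 Transplanted-tumor mice were given test agent; controls received vehicle only. Survival readings from the two groups were divided (treated over control).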

[1] = dose: 100.0 mg/kg/injection, schedule: Q01DX009 (ip), vehicle: saline with Tween-80
[2] = dose: 100.0 mg/kg/injection, schedule: Q04DX003 (ip), vehicle: saline with Tween-80
[3] = dose: 200.0 mg/kg/injection, schedule: Q01DX009 (ip), vehicle: saline with Tween-80
[4] = dose: 200.0 mg/kg/injection, schedule: Q04DX003 (ip), vehicle: saline with Tween-80
[5] = dose: 400.0 mg/kg/injection, schedule: Q01DX009 (ip), vehicle: saline with Tween-80
[6] = dose: 400.0 mg/kg/injection, schedule: Q04DX003 (ip), vehicle: saline with Tween-80
[7] = dose: 30.0 mg/kg/injection, schedule: Q01DX Z (ip), vehicle: saline
[8] = dose: 100.0 mg/kg/injection, schedule: Q01DX001 (ip), vehicle: saline
[9] = dose: 200.0 mg/kg/injection, schedule: Q01DX001 (ip), vehicle: saline
[10] = dose: 400.0 mg/kg/injection, schedule: Q01DX001 (ip), vehicle: saline
[11] = dose: 100.0 mg/kg/injection, schedule: Q04DX002 (ip), vehicle: Klucel (hydroxypropylcellulose) (HPC)
[12] = dose: 200.0 mg/kg/injection, schedule: Q04DX002 (ip), vehicle: Klucel (hydroxypropylcellulose) (HPC)
[13] = dose: 400.0 mg/kg/injection, schedule: Q04DX002 (ip), vehicle: Klucel (hydroxypropylcellulose) (HPC)
[14] = dose: 100.0 mg/kg/injection, schedule: Q01DX009 (ip), vehicle: saline
[15] = dose: 200.0 mg/kg/injection, schedule: Q01DX009 (ip), vehicle: saline
[16] = dose: 100.0 mg/kg/injection, schedule: Q01DX009 (ip), vehicle: Klucel (hydroxypropylcellulose) (HPC)
[17] = dose: 100.0 mg/kg/injection, schedule: Q04DX003 (ip), vehicle: Klucel (hydroxypropylcellulose) (HPC)
[18] = dose: 200.0 mg/kg/injection, schedule: Q01DX009 (ip), vehicle: Klucel (hydroxypropylcellulose) (HPC)
[19] = dose: 200.0 mg/kg/injection, schedule: Q04DX003 (ip), vehicle: Klucel (hydroxypropylcellulose) (HPC)
[20] = dose: 400.0 mg/kg/injection, schedule: Q01DX009 (ip), vehicle: Klucel (hydroxypropylcellulose) (HPC)
[21] = dose: 400.0 mg/kg/injection, schedule: Q04DX003 (ip), vehicle: Klucel (hydroxypropylcellulose) (HPC)
[22] = dose: 50.0 mg/kg/injection, schedule: Q01DX009 (ip), vehicle: Klucel (hydroxypropylcellulose) (HPC)

Measured: T/C

CCCCOC(=O)c1cocc1C(=O)OCCCC
inactive: [1] 99 % of control | [2] 98 % of control | [3] 92 % of control | [4] 104 % of control | [5] 90 % of control | [6] 93 % of control

CCCCCCCCCCCCNC1=C(Cl)C(=O)C(=O)c2cccnc21
inactive: [2] 98 % of control | [4] 101 % of control | [6] 95 % of control

CCSC(=O)C1OC(n2cnc3c(N)ncnc32)C2OC(C)(C)OC12 (configuration not stated)
inactive: dose: 100.0 mg/kg/injection, schedule: Q01DX005 (ip), vehicle: saline 100 % of control | dose: 200.0 mg/kg/injection, schedule: Q01DX005 (ip), vehicle: saline 102 % of control

NCCCCC(N)C(=O)NCCCNCCCCNCCCNC(=O)C(N)CCCCN (configuration not stated)
inactive: dose: 3.0 mg/kg/injection, schedule: Q01DX Z (ip), vehicle: saline 104 % of control | dose: 10.0 mg/kg/injection, schedule: Q01DX Z (ip), vehicle: saline 94 % of control | [7] 93 % of control | dose: 100.0 mg/kg/injection, schedule: Q01DX Z (ip), vehicle: saline 106 % of control

Cc1cc(Nc2ccc(N=Nc3ccc(O)c4ncccc34)cc2)nc(C)n1
inactive: [8] 102 % of control | [9] 105 % of control | [10] 103 % of control

Cc1ccccc1OCC(O)COC(N)=O (configuration not stated)
inactive: dose: 0.62 mg/kg/injection, schedule: Q04DX003 (ip), vehicle: saline 100 % of control | dose: 1.25 mg/kg/injection, schedule: Q04DX003 (ip), vehicle: saline 100 % of control | dose: 2.5 mg/kg/injection, schedule: Q04DX003 (ip), vehicle: saline 112 % of control | dose: 5.0 mg/kg/injection, schedule: Q04DX003 (ip), vehicle: saline 98 % of control | dose: 10.0 mg/kg/injection, schedule: Q04DX003 (ip), vehicle: saline 98 % of control

O=C(O)c1ccc(Cl)cc1F
inactive: [11] 97 % of control | [12] 108 % of control | [13] 97 % of control

CN1CCN(c2nn3nnnc3c3ccccc23)CC1
inactive: dose: 20.0 mg/kg/injection, schedule: Q04DX003 (ip), vehicle: saline 98 % of control | dose: 40.0 mg/kg/injection, schedule: Q04DX003 (ip), vehicle: saline 104 % of control | dose: 80.0 mg/kg/injection, schedule: Q04DX003 (ip), vehicle: saline 95 % of control

COc1cc([N+](=O)[O-])ccc1NC(=O)N(C)C1CCCCC1
inactive: dose: 100.0 mg/kg/injection, schedule: Q01DX001 (ip), vehicle: saline with Tween-80 103 % of control | [1] 98 % of control and 91 % of control | dose: 100.0 mg/kg/injection, schedule: Q04DX002 (ip), vehicle: saline with Tween-80 99 % of control and 105 % of control | dose: 200.0 mg/kg/injection, schedule: Q01DX001 (ip), vehicle: saline with Tween-80 100 % of control | [3] 92 % of control and 96 % of control | dose: 200.0 mg/kg/injection, schedule: Q04DX002 (ip), vehicle: saline with Tween-80 94 % of control and 86 % of control | dose: 400.0 mg/kg/injection, schedule: Q01DX001 (ip), vehicle: saline with Tween-80 94 % of control | [5] 94 % of control and 98 % of control | dose: 400.0 mg/kg/injection, schedule: Q04DX002 (ip), vehicle: saline with Tween-80 94 % of control and 89 % of control

COC(=O)/C=C/C(=O)NC(N)=O
inactive: dose: 6.25 mg/kg/injection, schedule: Q01DX009 (ip), vehicle: saline 93 % of control | dose: 12.5 mg/kg/injection, schedule: Q01DX009 (ip), vehicle: saline 98 % of control | dose: 25.0 mg/kg/injection, schedule: Q01DX009 (ip), vehicle: saline 101 % of control

OC/C(=N/Nc1ccc2ccccc2n1)c1ccccc1
inactive: [1] 94 % of control | [2] 93 % of control | [3] 93 % of control | [4] 100 % of control | [5] 93 % of control | [6] 89 % of control

COc1ccc(-c2nc3cc(Cl)ccc3c(=O)o2)cc1
inactive: [1] 94 % of control | [3] 94 % of control | [5] 90 % of control

O=CNCCNC=O
inactive: [14] 102 % of control | [15] 104 % of control | dose: 400.0 mg/kg/injection, schedule: Q01DX009 (ip), vehicle: saline 98 % of control

CN(C)c1ccc(C=O)c(Oc2ccccc2)c1
inactive: [16] 96 % of control | [17] 97 % of control | [18] 110 % of control | [19] 97 % of control | [20] 106 % of control | [21] 94 % of control

O=C(c1ccc(Cl)cc1)C(C(c1ccc([N+](=O)[O-])cc1)N1CCCCC1)N1CCCCC1 (configuration not stated)
inactive: dose: 12.5 mg/kg/injection, schedule: Q01DX001 (ip), vehicle: Klucel (hydroxypropylcellulose) (HPC) 98 % of control | dose: 12.5 mg/kg/injection, schedule: Q01DX009 (ip), vehicle: Klucel (hydroxypropylcellulose) (HPC) 102 % of control | dose: 25.0 mg/kg/injection, schedule: Q01DX001 (ip), vehicle: Klucel (hydroxypropylcellulose) (HPC) 104 % of control | dose: 25.0 mg/kg/injection, schedule: Q01DX009 (ip), vehicle: Klucel (hydroxypropylcellulose) (HPC) 98 % of control | dose: 50.0 mg/kg/injection, schedule: Q01DX001 (ip), vehicle: Klucel (hydroxypropylcellulose) (HPC) 102 % of control | [22] 101 % of control | dose: 400.0 mg/kg/injection, schedule: Q01DX001 (ip), vehicle: Klucel (hydroxypropylcellulose) (HPC) 92 % of control

COC(=O)C(CSCc1ccccc1)NC(=O)OCc1ccccc1 (configuration not stated)
inactive: [16] 96 % of control | [17] 90 % of control | [18] 94 % of control | [19] 87 % of control | [20] 94 % of control

C[n+]1ccccc1NC(=O)c1ccc(C(=O)Nc2cccc[n+]2C)cc1
inactive: dose: 7.5 mg/kg/injection, schedule: Q01DX Z (ip), vehicle: saline 98 % of control | dose: 15.0 mg/kg/injection, schedule: Q01DX Z (ip), vehicle: saline 100 % of control | [7] 87 % of control | dose: 120.0 mg/kg/injection, schedule: Q01DX Z (ip), vehicle: saline 87 % of control | dose: 240.0 mg/kg/injection, schedule: Q01DX Z (ip), vehicle: saline 91 % of control

O=C(O)CCCCC(=O)c1cc(O)ccc1O
inactive: [17] 102 % of control | [19] 104 % of control | [21] 102 % of control

O=C(C1CCC2c3ccccc3CCC2C1C(=O)N1CCCCC1)N1CCCCC1 (configuration not stated)
inactive: dose: 50.0 mg/kg/injection, schedule: Q01DX001 (ip), vehicle: carboxymethylcellulose (CMC) 103 % of control | dose: 100.0 mg/kg/injection, schedule: Q01DX001 (ip), vehicle: carboxymethylcellulose (CMC) 101 % of control | dose: 200.0 mg/kg/injection, schedule: Q01DX001 (ip), vehicle: carboxymethylcellulose (CMC) 108 % of control

CCC(SC(C)=O)C(=O)O (configuration not stated)
inactive: dose: 50.0 mg/kg/injection, schedule: Q01DX009 (ip), vehicle: saline 96 % of control | [14] 91 % of control | dose: 100.0 mg/kg/injection, schedule: Q04DX003 (ip), vehicle: saline 89 % of control | [15] 91 % of control | dose: 200.0 mg/kg/injection, schedule: Q04DX003 (ip), vehicle: saline 96 % of control

CC(C)(CBr)C(=O)O
inactive: [8] 95 % of control | [9] 95 % of control | [10] 100 % of control

CNc1ccc(Cl)cc1-c1nc2ccccc2[nH]1
inactive: [22] 109 % of control | [16] 102 % of control | [18] 102 % of control

O=C(Oc1ccc(Br)cc1)c1cc([N+](=O)[O-])ccc1O
inactive: [8] 98 % of control | [9] 104 % of control | [10] 103 % of control

O=C(Nc1ccccc1)OCCOc1ccc(Cl)cc1
inactive: [11] 88 % of control | [12] 95 % of control | [13] 95 % of control

CC(=O)C(C(c1ccccc1)N1CCCc2ccccc21)N1CCOCC1 (configuration not stated)
inactive: [16] 96 % of control | [18] 91 % of control | [20] 98 % of control

CC(=O)Nc1nc(=O)n(CC(=O)c2cccs2)cc1F
inactive: [1] 98 % of control | [2] 102 % of control | [3] 98 % of control | [4] 97 % of control | [6] 101 % of control
